The source of these data is paper PMC2988971 (Journal of medicinal chemistry, 2010).

Where a name gives a salt, the structure may show the parent alone. Read-outs that look alike come from different tables or passages of the source. Where only a bound is given, the exact number is not on record here.

What is called EC50 is the concentration at which the effect is half-maximal. For orientation: inhibition means the relative decrease from the control value, in per cent. By GI50 is commonly meant the concentration that inhibits growth by half.

Test [1] relates to MDA-MB-435 cells. Kind of test: Sulforhodamine B. It is filed as cell-based.
Test [2] concerns A-10 cells. As to the kind of experiment: Effects on cellular microtubules. The test is classed as cell-based. Conditions: for Effect on interphase microtubules: 18 h, cell-based phenotypic screen, Fig. 3.
Test [3] has as its target Bovine brain tubulin (Bos taurus, UniProt P81947+Q6B856). As to the kind of experiment: Quantitative inhibition of tubulin assembly. It is filed as biochemical.
Test [4] has as its target tubulin (colchicine site) (Bos taurus, UniProt P81947+Q6B856). Kind of test: Inhibition of [3H]colchicine binding to tubulin. On the set-up: species or system bovine. The following applies: read-out: Inhibition of colchicine binding % Inhibition ± SD.
Test [5] concerns purified bovine brain tubulin. Kind of test: In vitro tubulin polymerization. It is filed as biochemical. Conditions: initial study, Fig. 5; 10% glycerol, 3 mg/mL purified tubulin, 10 mM GTP.
Test [6] has as its system WT βIII. Kind of test: SRB antiproliferative assay, βIII-tubulin expressing line. The test is classed as cell-based. The following applies: for Rr (relative resistance), effect of βIII-tubulin on drug sensitivity: IC50 of the WT βIII cell line divided by IC50 of the parental HeLa cells. (In general: The SRB assay estimates cell density from bound dye.)
Test [7] relates to MDA-MB-435 cells. Kind of test: Cell cycle analysis by flow cytometry. The test is classed as cell-based. The following applies: MDA-MB-435, 24 h, 850 nM 1, 45 nM (±)-3•HCl. For orientation: In flow cytometry, cells or beads pass a laser one at a time.
Test [8] concerns 60 cancer cell lines. As to the kind of experiment: NCI 60 tumor cell line panel, summary over the panel.
The test system of test [9] is SNB-75. As to the kind of experiment: NCI 60 cell line panel tumor cell growth inhibition. Conditions: Homo sapiens.
Test [10] relates to HS 578T. The description is as above. Conditions: Homo sapiens.
The test system of test [11] is HL-60(TB). Described as above. The test is classed as cell-based. Conditions: Homo sapiens.
The subject of test [12] is HCT-15. The description is as above. Conditions: Homo sapiens.
Test [13] has as its system SK-OV-3 MDR-1-6/6. As to the kind of experiment: SRB antiproliferative assay, Pgp overexpressing. The test is classed as cell-based. Conditions: Homo sapiens, SK-OV-3, read-out: IC50 (SD) SK-OV-3 MDR-1-6/6.
The subject of test [14] is SR. As to the kind of experiment: NCI 60 cell line panel tumor cell growth inhibition. Conditions: Homo sapiens.
Test [15] has as its system K-562. Described as above. Conditions: Homo sapiens, K562.
Test [16] concerns MDA-MB-468. The description is as above. Conditions: Homo sapiens.
The test system of test [17] is A498. Described as above. The following applies: Homo sapiens.
Test [18] has as its system SK-OV-3. As to the kind of experiment: SRB antiproliferative assay, parental line of Pgp isogenic pair. It is filed as cell-based. The following applies: Homo sapiens, SK-OV-3, read-out: IC50 (SD) SK-OV-3.
Test [19] concerns SF-295. Kind of test: NCI 60 cell line panel tumor cell growth inhibition. The following applies: Homo sapiens.
In test [20] the test system is SW-620. Described as above. Conditions: Homo sapiens.
In test [21] the test system is RXF 393. The test is described as above. Conditions: Homo sapiens.
Test [22] relates to SK-MEL-5. The test is described as above. The following applies: Homo sapiens.
Test [23] concerns SK-MEL-28. The test is described as above. Conditions: Homo sapiens.
The subject of test [24] is HeLa. Kind of test: SRB antiproliferative assay, parental line of βIII-tubulin isogenic pair. It is filed as cell-based. Conditions: Homo sapiens, read-out: IC50 (SD) HeLa.
For test [25], the system named is MCF7. As to the kind of experiment: NCI 60 cell line panel tumor cell growth inhibition. The following applies: Homo sapiens.
Test [26] concerns UACC-62. Described as above. Conditions: Homo sapiens.
In test [27] the test system is NCI/ADR-RES. The test is described as above. The following applies: Homo sapiens.
Test [28] concerns KM12. The description is as above. Conditions: Homo sapiens.
In test [29] the test system is NCI-H522. Described as above. Conditions: Homo sapiens.
In test [30] the test system is MDA-MB-435. The test is described as above. Conditions: Homo sapiens.
Test [31] relates to OVCAR-3. The test is described as above. Conditions: Homo sapiens.
Where [32] appears, read: Homo sapiens, MDA-MB-435, read-out: IC50±SD (MDA-MB-435).

Bovine brain tubulin, sequence (Q6B856 whole entry): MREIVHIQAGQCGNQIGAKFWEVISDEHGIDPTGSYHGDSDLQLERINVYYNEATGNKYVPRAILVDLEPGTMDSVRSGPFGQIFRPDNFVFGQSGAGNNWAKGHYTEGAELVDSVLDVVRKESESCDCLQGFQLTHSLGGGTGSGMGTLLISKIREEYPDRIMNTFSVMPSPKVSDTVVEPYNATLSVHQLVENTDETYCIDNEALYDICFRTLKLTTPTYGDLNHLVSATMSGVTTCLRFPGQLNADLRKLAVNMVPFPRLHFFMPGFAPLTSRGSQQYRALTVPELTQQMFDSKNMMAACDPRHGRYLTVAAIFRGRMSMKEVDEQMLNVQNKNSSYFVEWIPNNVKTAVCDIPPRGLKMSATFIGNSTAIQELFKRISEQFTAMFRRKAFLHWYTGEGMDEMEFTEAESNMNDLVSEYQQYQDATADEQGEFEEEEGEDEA
Bovine brain tubulin, sequence (P81947 whole entry): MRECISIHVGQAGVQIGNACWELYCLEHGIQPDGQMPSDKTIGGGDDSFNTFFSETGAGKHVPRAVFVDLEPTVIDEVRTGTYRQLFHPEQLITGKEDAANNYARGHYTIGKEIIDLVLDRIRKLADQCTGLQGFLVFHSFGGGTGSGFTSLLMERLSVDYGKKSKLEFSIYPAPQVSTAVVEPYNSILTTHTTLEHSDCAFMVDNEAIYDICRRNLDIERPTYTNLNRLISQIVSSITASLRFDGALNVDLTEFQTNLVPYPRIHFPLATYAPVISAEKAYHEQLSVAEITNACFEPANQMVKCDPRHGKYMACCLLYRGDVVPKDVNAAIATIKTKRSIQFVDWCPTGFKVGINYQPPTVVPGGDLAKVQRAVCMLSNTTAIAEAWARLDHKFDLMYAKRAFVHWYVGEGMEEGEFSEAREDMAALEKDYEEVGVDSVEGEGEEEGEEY
tubulin (colchicine site), sequence (Q6B856 whole entry): as the sequence (Q6B856 whole entry) above
tubulin (colchicine site), sequence (P81947 whole entry): as the sequence (P81947 whole entry) above

As to `Cc1nc2c(c(N(C)c3ccccc3)n1)CC(C)C2` (racemic) [(±)-7•HCl, N-Phenyl-N,2,6-trimethyl-6,7-dihydro-5H-cyclopenta[d]pyrimidin-4-aminium chloride], in [1] (setting [32]), the IC50 was determined as 2700 ± 300 nM.

“N-(4-Methoxyphenyl)-2,6-dimethyl-6,7-dihydro-5H-cyclopenta[d]pyrimidin-4-amine [(±)-4]”: the EC50 in test [2] (read-out: EC50 for microtubule depolymerization, concentration required to cause 50% loss of cellular microtubules, A-10 cells) was above 40000 nM. Moreover, in [1] (read-out: IC50±SD (MDA-MB-435), inhibition of proliferation, SRB assay), the IC50 was above 10000 nM.

In test [3], `COc1ccc(/C=C\c2cc(OC)c(OC)c(OC)c2)cc1OP(=O)(O)O` [CA4P, combretastatin A-4 phosphate, reference compound] showed an IC50 of 1000 ± 90 nM. Moreover, in test [4], the inhibition at 1 µM amounted to 88 ± 2% and the inhibition at 5 µM was 99 ± 0.2%.

For `COc1ccccc1N(C)c1nc(C)nc2c1CC(C)C2.Cl` (racemic) [(±)-6•HCl, N-(2-Methoxyphenyl)-N,2,6-trimethyl-6,7-dihydro-5H-cyclopenta[d]pyrimidin-4-aminium chloride], in [2] (Table 2 data, 2′-OCH3 analog), the result was inactive.

The molecule `COc1ccc(N(C)c2nc(C)nc3[nH]ccc23)cc1` [Compound 1, N-(4-Methoxyphenyl)-N,2-dimethyl-7H-pyrrolo[2,3-d]pyrimidin-4-amine] had an IC50 in test [3] of 2600 ± 50 nM. In addition, in test [5], the “Effect on polymerization of purified tubulin” value is “potent inhibitors of purified tubulin assembly”. In addition, the “Effect on interphase microtubules” value in test [2] (A-10 cells) is on record as “dramatic reorganization of the interphase microtubule network”. Besides, the “Rr (relative resistance), effect of βIII-tubulin on drug sensitivity” value in test [6] is on record as 0.6–0.7. The “Cell cycle effect” value in test [7] is “mitotic accumulation”. In addition, the GI50 in test [8] is below 500 nM.

In the case of `COc1cccc(N(C)c2nc(C)nc3c2CC(C)C3)c1.Cl` (racemic) [(±)-5•HCl, N-(3-Methoxyphenyl)-N,2,6-trimethyl-6,7-dihydro-5H-cyclopenta[d]pyrimidin-4-aminium chloride], in test [1] (setting [32]), the IC50 was determined as 153 ± 11.1 nM. For the same molecule, the “fold less potent than (±)-3•HCl” value in [1] (comparison of 3′-OCH3 with 4′-OCH3 analog, Table 2) is “about 9 fold”.

For `COc1ccc(N(C)c2nc(C)nc3c2CC(C)C3)cc1.Cl` (racemic) [(±)-3•HCl, N-(4-Methoxyphenyl)-N,2,6-trimethyl-6,7-dihydro-5H-cyclopenta[d]pyrimidin-4-aminium chloride], the GI50 in test [9], in test [10], in test [11], in test [12], in test [14] and in [15] was below 10 nM each time. In addition, the GI50 in test [16], in test [17], in test [19], in test [20], in test [21] and in test [22] was below 10 nM each time. For the same molecule, the GI50 in test [23] was below 10 nM; in [25] it was below 10 nM; in test [26] it was below 10 nM; in [27], below 10 nM; in [8] it was below 30 nM; in test [28] it was below 10 nM. Also, the GI50 in test [29], in [30] and in [31] was below 10 nM each time. Further, the IC50 was 1900 ± 10 nM in test [3]; 44.4 ± 3.2 nM in [13]; 38.6 ± 3.1 nM in test [18]; 23.9 ± 1.7 nM in test [6] (read-out: IC50 (SD) WT βIII); 17 ± 0.7 nM in test [1] (setting [32]); 37.3 ± 4.1 nM in test [24]. Also, in [4], the inhibition at 1 µM worked out at 60 ± 2%. In addition, in test [4], the inhibition at 5 µM came out at 84 ± 3%. In test [5], the “Effect on polymerization of purified tubulin” value is “potent inhibitors of purified tubulin assembly”. In addition, in test [2] (A-10 cells), the “Effect on interphase microtubules” value was “dramatic reorganization of the interphase microtubule network”. Also, the “Rr (relative resistance), effect of βIII-tubulin on drug sensitivity” value is 0.6–0.7 in test [6] and 0.6 in test [6] (listed as (±)-3•HCI). For the same molecule, in [7], the “Cell cycle effect” value is reported as “mitotic accumulation”.
